Results published in patent US9175024B2, “Platinum compound having amino or alkylamino-containing succinic acid derivatives as leaving group, preparation method thereof, and use thereof” (BEIJING FSWELCOME TECHNOLOGY DEVELOPMENT CO., LTD., priority 2011, dated 2015).
Where “and” joins values, the source holds several entries; their conditions need not be identical. Identical values can stand only once.

Tests used:
Lung cancer A549 = test: MTT cytotoxicity, lung cancer A549; assay type: cell-based; conditions: n = 6, Lung cancer A549
Description: (§1) Several kinds of tumor cells in exponential growth phase were prepared into single cell suspension, inoculated on 96 pore plat at the density of 4×10^4/hole, cultivated for 24 hours to enable to adhere to wall with 1640 culture medium containing 10% fetal calf serum (complete medium) at 37° C.; the final culture volume was 100 μl. Cell morphology was observed after culture for 24 hours.

Lewis lung cancer = test: MTT cytotoxicity, Lewis lung cancer; assay type: cell-based; conditions: n = 6, Lewis lung cancer
Description: as §1

Gastric cancer MGC803 = test: MTT cytotoxicity, gastric cancer MGC803; assay type: cell-based; conditions: n = 6, Gastric cancer MGC803
Description: as §1

Lung cancer H292 = test: MTT cytotoxicity, lung cancer H292; assay type: cell-based; conditions: n = 6, Lung cancer H292
Description: as §1

Testis cell ST = test: MTT cytotoxicity, testis cell ST; assay type: cell-based; conditions: n = 6, Testis cell ST
Description: as §1

Colon cancer SW480 [1] = test: MTT cytotoxicity, colon cancer SW480; assay type: cell-based; conditions: n = 6, Colon cancer SW480
Description: as §1

[2] = test system: Breast cancer MCF-7 Cisplatin resistance strain; test: MTT cytotoxicity, breast cancer MCF-7 cisplatin resistance strain; assay type: cell-based; conditions: n = 6, Breast cancer MCF-7 Cisplatin resistance strain
Description: as §1

normal mice = test: Acute toxic effect of platinum complex on normal mice (LD50, single intravenous administration); assay type: in vivo, Kunming mice; conditions: single intravenous administration in 5% glucose solution, 14 days observation, Bliss method
Description: (§2) Kunming mice at 4˜6 weeks old and at the weight of 18˜22 g were taken, 50% male and 50% female. Embodiment platinum compound was dissolved with 5% glucose solution. […] Mortality and toxicity were observed after administration, totally observing 14 days, LD50 value was calculated with Bliss method according to mortality.

Esophagus cancer ECA109 = test: MTT cytotoxicity, esophagus cancer ECA109; assay type: cell-based; conditions: n = 6, Esophagus cancer ECA109
Description: as §1

Breast cancer MCF-7 [3] = test: MTT cytotoxicity, breast cancer MCF-7; assay type: cell-based; conditions: n = 6, Breast cancer MCF-7
Description: as §1

[4] = test system: Pulmonary epithelial cell BEAS-2B; test: MTT cytotoxicity, pulmonary epithelial cell BEAS-2B; assay type: cell-based; conditions: n = 6, Pulmonary epithelial cell BEAS-2B
Description: as §1

colon cancer SW480 [5] = test: In vivo antitumor activity, colon cancer SW480 in nude mice; conditions: SW480 in male nude mice, once a week, 4 times, tumor weighed after 4 weeks
Excerpt: The calculation formula of tumor inhabitation rate is: […]

breast cancer MCF-7 [6] = test: In vivo antitumor activity, breast cancer MCF-7 in nude mice; conditions: MCF-7 in female nude mice, 30 mg (platinum)/kg, once a week, 4 times, tumor weighed 4 weeks later
[7] = Acute toxic effect of platinum complex on normal mice (LD50, single intravenous administration); assay type: in vivo, Kunming mice; conditions: both sexes, Kunming, mouse, in vivo; single intravenous administration in 5% glucose solution, 14 days observation, Bliss method
Description: as §2

physchem = conditions: water

Structure (SMILES) | IC50 (Lung cancer A549) | IC50 (Lewis lung cancer) | IC50 (Gastric cancer MGC803) | IC50 (Lung cancer H292) | IC50 (Testis cell ST) | IC50 (Colon cancer SW480 [1]) | IC50 [2] | LD50 value (normal mice) | IC50 (Esophagus cancer ECA109) | IC50 (Breast cancer MCF-7 [3]) | IC50 [4] | Tumor inhibition rate (x ± SD) (colon cancer SW480 [5]; 30 mg (platinum)/kg) | Tumor inhibition rate (x ± SD) (breast cancer MCF-7 [6]) | Tumor inhibition rate (x ± SD) (colon cancer SW480 [5]; 10 mg (platinum)/kg) | LD50 at 14 days [7] | solubility (physchem)
NC(CC(=O)[O-])C(=O)[O-].NC1CCCCC1N.[Pt+2] (racemic) [ADP, [DL-2-amino-succinato].[trans-hexamethylenediamine]platinum (II), reference compound] | 145 µM | 162 µM | 160 µM | 61 µM | 187 µM | 98 µM | 156 µM | 0.332 mmol/kg | 98 µM and 163 µM | 73 µM | 107 µM | 45.3 ± 11.21% | 68.3 ± 10.27 9% | – | – | –
CCN(CC)CCC(CC(=O)[O-])C(=O)[O-].NC1CCCCC1N.[Pt+2] (racemic) [Compound 10, [2-(2-diethyl amino ethyl)-succinato].[Cis-(1,2-trans-cyclohexyldiamine)]platinum (II)] | – | 28 µM | – | 24 µM | – | 5 µM | – | 0.595 mmol/kg | – | – | 25 µM | – | – | 55.1 ± 9.07% | – | –
NC1CCCCC1N.O=C([O-])CC(CCCN1CCCCC1)C(=O)[O-].[Pt+2] (racemic) [Compound 13, [2-(3-(1-piperidyl)propyl)-succinato].[Cis-(1,2-trans-cyclohexyldiamine)]platinum (II)] | – | 32 µM | – | 57 µM | – | 95 µM | – | 0.542 mmol/kg | – | – | 12 µM | – | – | 56.3 ± 6.81% | – | –
NCCC(CC(=O)[O-])C(=O)[O-].N[C@@H]1CCCC[C@H]1N.[Pt+2] (relative stereo) [Compound 9, [2-(2-aminoethyl)-succinato].[Cis-(1,2-trans-cyclohexyldiamine)]platinum (II)] | – | 84 µM | – | 26 µM | – | 62 µM | – | 0.429 mmol/kg | – | – | 17 µM | – | – | 44.8 ± 10.8% | – | –
CN(C)CCCC1CC(=O)[O][Pt]2([NH]C3CCCCC3[NH]2)[O]C1=O (stereo not drawn) [Compound 11, [2-(3-dimethylamino propyl)-succinato].[Cis-(1,2-trans-cyclohexyldiamine)]platinum (II)] | – | 51 µM | – | 13 µM | – | 22 µM | – | 0.571 mmol/kg | – | – | 45 µM | – | – | 46.3 ± 9.88% | – | –
CCNCCC1CC(=O)[O][Pt]2([NH]C3CCCCC3[NH]2)[O]C1=O (stereo not drawn) [Compound 12, [2-(2-ethylamino ethyl)-succinato].[Cis-(1,2-trans-cyclohexyldiamine)]platinum (II)] | – | 69 µM | – | 61 µM | – | 72 µM | – | 0.602 mmol/kg | – | – | 57 µM | – | – | 46.8 ± 9.17% | – | –
CCN(CC)CCCCC1CC(=O)[O][Pt]([NH2])([NH2])[O]C1=O (stereo not drawn) [Compound 27, [2-(4-diethylamino butyl)-succinato].[Cis-diamine]platinum (II) acetate] | – | – | – | – | – | – | – | – | – | – | – | – | – | – | 557 µmol/kg | 143 mg/mL
CC(=O)NC(CC(=O)[O-])C(=O)[O-].NC1CCCCC1N.[Pt+2] (centres unmarked) [Contrast Embodiment 1, reference compound] | 436 µM | 545 µM | 525 µM | 253 µM and 353 µM and 365 µM | 239 µM | 615 µM | 425 µM | 0.092 mmol/kg | 467 µM | 632 µM | 433 µM | – | – | – | – | –
